How the values were obtained:
Assay type in all cases: physicochemical
[1] = Bulk density (poured density) of powder in a 100 cm^3 measuring cylinder; conditions: L-leucine samples
Experimental: The bulk density (or poured density) of a material of the present invention is determined by the following method:
2 g of the material is poured from weighing paper into a 100 cm^3 graduated glass measuring cylinder in an upright position. Transfer of the material from the paper into the cylinder is made as rapidly as flow permits. The volume occupied by the poured powder in the cylinder is measured to the nearest 0.5 ml (bulk volume) and the weight of the powder is determined.
The bulk density of the material is calculated as the weight of the powder divided by the bulk volume.
The bulk density and particle size diameter (as VMD) were determined for the spray-dried leucine. Bulk density and VMD were determined by the method indicated above.
The bulk density and particle size distribution were determined by the methods described in respect of Example 1 above, and are given in Table 3.

[2] = Particle size distribution by low angle laser light scattering (Mastersizer X); conditions: for VMD: volume median diameter, dispersant 0.05% lecithin in cyclohexane; for D(v,90): diameter below which 90% of particles by volume reside, unit not given
Experimental: The particle size distribution was determined by low angle laser light scattering (Mastersizer X, Malvern Instruments, Malvern, UK). To approximately 5 mg of the sample to be analysed 10 ml of dispersant was added (0.05% lecithin in cyclohexane). The sample suspension was sonicated for 30 seconds before analysis. The volume median diameter (VMD) and D(v,90) were determined. VMD is the diameter such that 50% of the particles by volume have a diameter less than the VMD. D(v,90) is the equivalent volume diameter at 90% cumulative volume. The bulk density and particle size diameter (as VMD) were determined for the spray-dried leucine. Bulk density and VMD were determined by the method indicated above.

[3] = Thickness of flakes (electron microscope observation); conditions: flakes prepared by the spray drying method
Source text: Observation of the thickness of the flakes may be made by studying electron microscope (SEM) images of the particles. For example, flakes may be mounted on an electron microscope stub with double sided tape and coated with gold prior to examination on an electron microscope. An alternative method for observing the dimensions of particles of the present invention is by sizing the particles on a microscope slide in a similar way to that described in British Pharmacopoeia 1973 (page 645, Ergotamine Aerosol Inhalation). In this case a small quantity of particles, for example 10 to 100 mg, are dropped onto a microscope slide and examined under a microscope to assess the particle size of the deposit.

[4] = Flow properties: poured density, tapped density and Carr's Index; conditions: for Poured Density: 250 cm^3 measuring cylinder; for Tapped Density: tapped to constant volume
Experimental: The flow properties of the L-leucine were determined by measuring the Carr's Index of the powder. Spray-dried L-leucine was added to a powdered protein (BSA-maltodextrin 50:50).
Carr's Index of a sample was determined by measuring the volume (Vpour) of weight (W) poured into a 250 cm^3 measuring cylinder and tapping the cylinder to obtain constant volume of the sample (Vtap). The poured density (bulk density) and the tap density are calculated as W/Vpour and W/Vtap respectively and Carr's Index is calculated from the tapped density and the poured density by the formula [formula]

[5] = listed as unprocessed L-leucine

Row | SMILES | Bulk Density ([1]; Example 2, Table 3) [gcm^−3] | VMD [2] | Bulk Density ([1]; Example 1, Table 1) [g cm^−3] | further results
1 | CC(C)C[C@H](N)C(=O)O [condensed, L-leucine] | 0.04 |  |  | 
2 | CC(C)C[C@H](N)C(=O)O [milled, L-leucine, reference compound] | 0.30 | milled (VMD = 18 μm) |  | 
3 | CC(C)C[C@H](N)C(=O)O [spray-dried A, L-leucine] |  | 4.2 μm | 0.042 | D(v,90) [2]: 10.6
4 | CC(C)C[C@H](N)C(=O)O [spray-dried B, L-leucine] |  |  | 0.035 | 
5 | CC(C)C[C@H](N)C(=O)O [spray-dried C, L-leucine] |  |  | 0.029 | 
6 | CC(C)C[C@H](N)C(=O)O [spray-dried D, L-leucine] |  |  | 0.035 | 
7 | CC(C)C[C@H](N)C(=O)O [spray-dried E, L-leucine] |  | 3.9 μm | 0.032 | D(v,90) [2]: 11.9
8 | CC(C)C[C@H](N)C(=O)O [spray-dried L-leucine, L-leucine] |  |  |  | thickness of flakes [3]: less than 100 nm; Poured Density [4]: 0.043 gcm^−3; Tapped Density [4]: 0.055 gcm^−3
9 | CC(C)C[C@H](N)C(=O)O [unprocessed, L-leucine, reference compound] | 0.70 |  | 0.710 | Poured Density [4, 5]: 0.710 gcm^−3; Tapped Density [4, 5]: 0.770 gcm^−3

Source: US6989155B1, “Powders” (Vectura Limited, priority 1998, dated 2006)
